Results taken from paper PMC11091220, “Metabolism-driven in vitro/in vivo disconnect of an oral ERɑ VHL-PROTAC” (Communications Biology, 2024).

Target: T1, ERα (Homo sapiens, UniProt P03372)
T1 construct: endogenous in cells; host or cells: MCF7 (also MCF7 engineered to express Cas9)
T1 sequence (P03372 1-595): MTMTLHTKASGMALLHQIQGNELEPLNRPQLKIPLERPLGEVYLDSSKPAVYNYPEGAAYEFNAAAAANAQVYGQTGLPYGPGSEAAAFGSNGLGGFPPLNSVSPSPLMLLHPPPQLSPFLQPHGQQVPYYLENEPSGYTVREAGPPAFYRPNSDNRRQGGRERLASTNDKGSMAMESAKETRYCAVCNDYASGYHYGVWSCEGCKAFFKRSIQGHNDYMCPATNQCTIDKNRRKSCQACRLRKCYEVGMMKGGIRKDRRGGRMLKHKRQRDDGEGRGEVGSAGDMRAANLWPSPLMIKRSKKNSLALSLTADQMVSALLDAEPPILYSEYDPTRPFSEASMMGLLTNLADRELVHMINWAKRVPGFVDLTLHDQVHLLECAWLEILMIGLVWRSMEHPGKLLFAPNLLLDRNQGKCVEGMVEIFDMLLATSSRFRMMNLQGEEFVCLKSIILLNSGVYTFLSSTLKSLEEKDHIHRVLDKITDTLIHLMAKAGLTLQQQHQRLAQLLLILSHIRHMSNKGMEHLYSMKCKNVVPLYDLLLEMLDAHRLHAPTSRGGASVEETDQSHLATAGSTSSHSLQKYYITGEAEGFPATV
Test: Western blot analysis of ERα in MCF7 cells (dose response, MG132, VHL ligand and cpd 8 competition)
Format: cell-based
Experimental: Fig. 2 AZ’6421 degrades ERα through a PROTAC mechanism of action. a Immunoblots for ERα and vinculin loading control. MCF7 cells were pre-treated with 10 µM MG132 or DMSO control for 1 h before being exposed to DMSO, AZ’6421, or fulvestrant, at the concentrations indicated, for a further 7 h. A representative immunoblot from two biological replicates is shown. b As in a but cells were pre-treated with 10 µM VHL ligand (Ac-(S,R,S)-AHPC) prior to addition of DMSO, AZ’6421 or fulvestrant. c MCF7 cells expressing BFP-Cas9 were reverse transfected with the crRNA:tracrRNA pool targeting VHL for 72 h prior to treatment with increasing concentrations of AZ’6421 for a further 24 h. Cells were then fixed, stained, and imaged to assess ERα and Cas9 expression. ERα levels in Cas9 positive cells were normalised to unedited cells (0) and ESR1 KO cells (-100). Data points are from three independent experiments, points in bold represent the mean. d Structure of AZ’6421 and the (S)-prolinol epimer, 7. e Concentration-response curves for AZ’6421 and 7. ERα levels in MCF7 cells were assessed using an immunofluorescence endpoint after 24 h exposure to compound. […] Data points are from 5 (AZ'6421) or 2 (Cpd 7) independent experiments with technical duplicates performed for each experiment, bold points represent the mean. All concentration-response curves were plotted using nonlinear regression analysis in GraphPad Prism.
Fig. 6 Assessment of the cause of the in vitro/in vivo disconnect. a CTC174 tumours were disaggregated into single cells, seeded in 6-well plates and dosed with increasing concentrations of AZ’6421 for 24 hours before being lysed. ERα levels were assessed by immunoblotting. ERɑ levels normalised to vinculin and expressed as % DMSO control are shown underneath the immunoblot. b Representative IHC images taken from sections of tumour treated with vehicle control or 100 mg/kg AZ’6421 for 4 days. Sections were stained with an antibody against ERα (Sp1, Ventana). c Schematic of potential sites of metabolism d Free plasma exposure of AZ’6421 and its metabolite 8 following 100 mg/kg dosing of AZ’6421. e Concentration-response curves for AZ’6421 and metabolite 8. ERα levels in MCF7 cells were assessed using an immunofluorescence endpoint after 24 h exposure to compound. […] Points in bold represent the mean. f Effect of metabolite 8 on ERα degradation in CTC174 cells cultured ex vivo. […] MCF7 cells were pre-treated with 10 µM cpd 8 or DMSO control for 1 h before being exposed to DMSO, AZ’6421 or fulvestrant, at the concentrations indicated, for a further 24 h. A representative immunoblot from two biological replicates is shown. TEXT PRINTED IN THE PICTURE: (a) AZ'6421: ERα % of DMSO control: 20.3 (1 nM); ERα % of DMSO control: 12.0 (10 nM); ERα % of DMSO control: 4.1 (30 nM); ERα % of DMSO control: 4.2 (100 nM); ERα % of DMSO control: 3.9 (300 nM); ERα % of DMSO control: 3.6 (1000 nM)
Cells were seeded into 12-well tissue culture-treated plates at 0.5 x 10^6 cells/well in phenol red-free RPMI containing 5% (v/v) charcoal-stripped FBS (F6765, Sigma) and left to adhere overnight. In experiments to detect agonism or for SILAC experiments, FBS was double stripped using activated charcoal. Cells were treated with compound or 0.1% DMSO vehicle control for the times indicated prior to being lysed in Pierce RIPA buffer (Thermo Scientific), supplemented with protease and phosphatase inhibitors. Expression levels of proteins were determined by standard western blotting techniques (BioRad 4%-12% Bis-Tris gels). Antibodies were diluted in 5% milk-PBS-Tween and protein levels were detected using Pierce WestDura chemiluminescent reagents followed by visualisation and quantification on a Syngene ChemiGenius Imager. Where blots were quantified, protein levels were normalised to beta-actin or vinculin control and expressed as % of vehicle control.

Cc1ncsc1-c1ccc(CNC(=O)[C@@H]2C[C@@H](O)CN2C(=O)[C@@H](NC(=O)COCCCOCCCOc2cc(F)c([C@@H]3c4[nH]c5ccccc5c4C[C@@H](C)N3CC(C)(C)F)c(F)c2)C(C)(C)C)cc1 [Compound 5]
effect of MG132 pre-treatment on ERα degradation (10 µM MG132 1 h, then compound 7 h, MCF7): attenuated ERα degradation
effect of excess acetylated-(S,R,S)-AHPC pre-treatment on ERα degradation (10 µM VHL ligand, MCF7): partially reduced ERα degradation
effect of excess (10 µM) 8 on ERα degradation (MCF7, 100 and 300 nM, 24 h): reduce this degradation to levels achieved in the presence of 8 alone
ERα degradation (MCF7, 100 and 300 nM, 24 h, western blot): near-complete degradation of ERα
concentration giving maximal ERα degradation (MCF7, 24 hours, western blot): ≥ 10 nM
remaining activity at 1 µM (MCF7, read-out: ERa % of control): 0.87%
